Results from article PMC4317638 (Emerging Microbes & Infections, 2014).
Counter-ions that a name gives are not always drawn. Like-named read-outs stand apart in the source and are kept apart here.

Assays:
[1] = system: Ebola VLP entry into HeLa cells; assay: microbe, parasite or virus in culture; assay type: cell-based, Ebola virus; details: for IC90: read-out: Block Ebola VLP entry IC90; for Emax: read-out: Block Ebola VLP entry Max. Inh.
[2] = system: HeLa cells
[3] = in vitro; details: human, Cytotoxicity IC50
[4] = system: Ebola virus infection; details: in vivo; cited from earlier work
[5] = system: Ebola virus infection; details: cited from earlier work
[6] = Zaire ebolavirus, HeLa, read-out: Block Ebola VLP entry IC50
[7] = Zaire ebolavirus, HeLa, read-out: IC50 of blocking Ebola VLP entry
[8] = read-out: Block Ebola VLP entry IC50

Molecule	Selectivity Index [1] [fold]	IC50 [1, 6] [µM]	IC90 ([1]; Zaire ebolavirus, HeLa) [µM]	Emax ([1]; Zaire ebolavirus, HeLa) [%]	IC50 [3] [µM]	other results
CN1CCN(CCCN2c3ccccc3Sc3ccc(C(F)(F)F)cc32)CC1 [Trifluoperazine]	21	4.48	12	97		IC50 [1, 7]: 4.4 µM; IC50 ([2]; human): 97 µM
Spiramycin						Block Ebola VLP entry Max. Inh. [1]: 92%; IC90 [1]: 11.7 µM; IC50 [2]: > 500 µM
COc1cccc2c1C(=O)c1c(O)c3c(c(O)c1C2=O)C[C@@](O)(C(C)=O)C[C@@H]3O[C@H]1C[C@H](N)[C@H](O)[C@H](C)O1 [Daunorubicin]	103					Block Ebola VLP entry Max. Inh. [1]: 96%; IC50 [1, 8]: 2.43 µM; IC90 [1]: 4.45 µM; IC50 ([2]; human): 250 µM
C[C@H]1O[C@@H](O[C@H]2[C@@H](O)C[C@H](O[C@H]3[C@@H](O)C[C@H](O[C@H]4CC[C@@]5(C)[C@H](CC[C@@H]6[C@@H]5C[C@@H](O)[C@]5(C)[C@@H](C7=CC(=O)OC7)CC[C@]65O)C4)O[C@@H]3C)O[C@@H]2C)C[C@H](O)[C@@H]1O [Digoxin]	327	0.763	3.45	68	250	IC50 [1, 7]: 0.76 µM; Cytotoxicity [2]: cytotoxicity at a compound concentration similar to that effective in blocking Ebola VLP entry
COc1cc(Nc2c(C#N)cnc3cc(OCCCN4CCN(C)CC4)c(OC)cc23)c(Cl)cc1Cl [Bosutinib]	11	3.85	21.3	101	43.2	
CN(C)CCCN1c2ccccc2CCc2ccc(Cl)cc21 [Clomipramine]			11.7	93	64.1	
CC[C@]1(O)C[C@H]2CN(CCc3c([nH]c4ccccc34)[C@@](C(=O)OC)(c3cc4c(cc3OC)N(C=O)[C@H]3[C@@](O)(C(=O)OC)[C@H](OC(C)=O)[C@]5(CC)C=CCN6CC[C@]43[C@@H]65)C2)C1 [Vincristine]	>3554	0.141	0.258	83	> 500	IC50 [1, 7]: 0.14 µM
CCN(CC)Cc1cc(Nc2ccnc3cc(Cl)ccc23)ccc1O [Amodiaquine]	>113	4.43	27.3	106	> 500	
CCN(CCCc1ccccc1)CCCc1ccccc1 [Alverine Citrate]	>58	8.63	21.8	90	> 500	
COC(=O)Nc1nc2ccc(C(=O)c3ccccc3)cc2[nH]1 [Mebendazole]	>145	3.44	14	88	> 500	IC50 [1, 7]: 3.4 µM
OCc1cc(C(O)CNCCCCCCOCCCCc2ccccc2)ccc1O (centres unmarked) [Salmeterol]	>52	9.68	13	90	> 500	
CC[C@@]1(O)C(=O)OCc2c1cc1n(c2=O)Cc2cc3c(CN(C)C)c(O)ccc3nc2-1 [Topotecan]	>130	3.85	10.8	107	> 500	
Cc1ccc(C(=O)Oc2ccc(C(O)CNC(C)(C)C)cc2OC(=O)c2ccc(C)cc2)cc1 (centres unmarked) [Bitolterol]	41	6.11	22.6	85	250	
CC(=O)c1ccc2c(c1)N(CCCN1CCC(CCO)CC1)c1ccccc1S2 [Piperacetazine]	>52	9.68	18.1	90	> 500	
CCN(CC)CCCC(C)Nc1ccnc2cc(Cl)ccc12 (centres unmarked) [Chloroquine]	>32	15.3	133	98	> 500	
CCN(CC)CCOc1ccc(C(=C(Cl)c2ccccc2)c2ccccc2)cc1 [Clomiphene]			5.34	92	91.4	Efficacy in a mouse infection model [4]: effective in a mouse infection model; Block of Ebola virus infection [5]: effectively block Ebola virus infection
N=C(N)NN=C(/C=C/c1ccc([N+](=O)[O-])o1)/C=C/c1ccc([N+](=O)[O-])o1 [Nitrovin]						Block Ebola VLP entry Max. Inh. [1]: 95%; IC50 [1, 8]: 4.85 µM; IC90 [1]: 7.14 µM; IC50 [2]: > 500 µM
CCCOc1ccc2nc(NC(=O)OC)[nH]c2c1 [Oxibendazole]	>291	1.72	3.75	57	> 500	
CCN(CC)CCCN(c1ccccc1)C1Cc2ccccc2C1 [Aprindine]	>65	7.69	26.6	93	> 500	
C[C@H]1O[C@@H](O[C@H]2CC[C@@]3(C)[C@H](CC[C@@H]4[C@@H]3C[C@@H](O)[C@]3(C)[C@@H](C5=CC(=O)OC5)CC[C@]43O)C2)C[C@H](O)[C@@H]1O[C@H]1C[C@H](O)[C@H](O[C@H]2C[C@H](O)[C@H](O[C@@H]3O[C@H](CO)[C@@H](O)[C@H](O)[C@H]3O)[C@@H](C)O2)[C@@H](C)O1 [Deslanoside]	515	0.485	11.7	66	250	
CN1CCN(CC/C=C2/c3ccccc3Sc3ccc(S(=O)(=O)N(C)C)cc32)CC1 [Thiothixene]	36	1.92	7.18	100	70.1	IC50 [1, 7]: 1.9 µM
CCCNCC(O)COc1ccccc1C(=O)CCc1ccccc1 (centres unmarked) [Propafenone]	>80	6.25	23.8	100	> 500	IC50 [1, 7]: 6.2 µM
CN(C)CCOc1ccc(/C(=C(/CCCl)c2ccccc2)c2ccccc2)cc1 [Toremifene]	316	0.566	3.73	98	180	IC50 [1, 7]: 0.56 µM; IC50 ([1]; read-out: IC50 of blocking Ebola VLP entry): 0.55 µM; Efficacy in a mouse infection model [4]: effective in a mouse infection model; Block of Ebola virus infection [5]: effectively block Ebola virus infection
CCC1=C[C@@H]2CN(C1)Cc1c([nH]c3ccccc13)[C@@](C(=O)OC)(c1cc3c(cc1OC)N(C)[C@H]1[C@@](O)(C(=O)OC)[C@H](OC(C)=O)[C@]4(CC)C=CCN5CC[C@]31[C@@H]54)C2 [Vinorelbine/Navelbine, Vinorelbine]	>7546	0.066	0.19	90	> 500	
OC(c1cc(C(F)(F)F)nc2c(C(F)(F)F)cccc12)C1CCCCN1 (centres unmarked) [Mefloquine]	16	2.73	13	94	43.2	
